In patent US20250382332A1, “NOVEL ALPHA-FACTOR BASED PEPTIDES WITH ANTIFUNGAL ACTIVITY” (INVAIO SCIENCES, INC., priority 2024, published 2025):
Peptide text beside a SMILES is read from it.

Test system: Botrytis cinerea (B05.10)
Assay: Resazurin antifungal assay of 180 alpha-factor peptide variants towards Botrytis (Example 2)
Assay type: cell-based
Parameters: key to active against Botrytis at 15 μM / active against Botrytis at 10 μM: Peptides that showed greater than 90% inhibition were considered active against Botrytis
Conditions: for Inhibition at 50 μM: peptide 50 μM; for Inhibition at 100 μM: peptide 100 μM; for Inhibition at 10 μM: peptide 10 μM; for Inhibition at 20 μM: peptide 20 μM
Method: The antifungal activity of 180 alpha-factor peptide variants towards Botrytis was tested. Experimental design:
Peptides corresponding to SEQ ID NO: 1-180 were chemically synthesized using the solid-phase synthesis method and resuspended in water to a stock solution of 1 mM. The stock solution was aliquoted in cryovials and stored at −80° C.
The Botrytis cinerea culture (B05.10) isolate was acquired from the Centraalbureau voor Schimmelcultures, the Netherlands. The Botrytis fungus was propagated on 0.5% V8 agar plates (200 ml V8 Juice, 3 g CaCO3, 15 g agar, 800-ml millipore water) at 20° C., in a 12 h photoperiod for 21 days.
Fungal conidia were harvested by scraping a Botrytis plate flooded with 1 ml water with 0.1% Tween 80 solution. Conidia were then collected in a 50 ml falcon tube by passing the solution through a 40 micron filter. The solution was then centrifuged at 6000 rpm and the pellet was resuspended in 1 ml of 20% glycerol. The conidia concentration of the resulting solution was counted using a hemocytometer. The stock was diluted to […] using 20% glycerol and frozen in 100 μl aliquots in −80° C. until further use.
Peptides were tested for activity against Botrytis, using the resazurin assay. For this, fungal stock conidia was first diluted to 5000 conidia/well. 50 μl of the spore suspension was added to each well of the sterile 96-well clear bottom testing plate and mixed with 50 μl of peptide solutions to a final concentration of 100, 50, 20, 15 and 10 μM. The plate was incubated for 24 h at 20° C. After 24 h, 10 μl of resazurin dye was added to the microtiter plate and incubated again for […]. Fluorescence was measured at 570/620 nm after 4 h of incubation with resazurin.
Growth inhibition was calculated by subtracting the fluorescence values of conidia only wells from sample wells and depicted as % inhibition of fungal growth. Four technical replicates were used for all treatments.

[1] = % inhibition of fungal growth, Botrytis conidia, resazurin

SMILES	Inhibition at 50 μM [1] [%]	Inhibition at 100 μM [1] [%]	Inhibition at 10 μM [1] [%]	Inhibition at 20 μM [1] [%]	Inhibition at 15 μM (% inhibition of fungal growth, Botrytis conidia, peptide 15 μM, resazurin) [%]	active against Botrytis at 15 μM (peptide 15 μM)
CC[C@H](C)[C@H](NC(=O)CNC(=O)[C@@H](N)CCCCN)C(=O)N[C@@H](CC(C)C)C(=O)N[C@H](C(=O)N[C@@H](CC(C)C)C(=O)N[C@@H](CCCCN)C(=O)N1CCC[C@H]1C(=O)NCC(=O)N[C@@H](CCC(N)=O)C(=O)N1CCC[C@H]1C(=O)N[C@@H](CCSC)C(=O)N[C@@H](Cc1ccc(O)cc1)C(=O)O)[C@@H](C)O [compound 153] (H-KGILTLKPGQPMY-OH; N-terminus and C-terminus assumed)	<90	<90	–	–	–	–
CC[C@H](C)[C@H](NC(=O)[C@H](CCCCN)NC(=O)[C@H](CC(C)C)NC(=O)[C@H](Cc1c[nH]c2ccccc12)NC(=O)[C@H](Cc1c[nH]cn1)NC(=O)[C@@H](N)Cc1c[nH]c2ccccc12)C(=O)N[C@@H](Cc1c[nH]c2ccccc12)C(=O)N1CCC[C@H]1C(=O)NCC(=O)N[C@@H](CCC(N)=O)C(=O)N1CCC[C@H]1C(=O)N[C@@H](CCSC)C(=O)N[C@@H](Cc1ccc(O)cc1)C(=O)O [compound 99] (H-WHWLKIWPGQPMY-OH; N-terminus and C-terminus assumed)	94.66	100	<90	<90	–	–
CSCC[C@H](NC(=O)[C@@H]1CCCN1C(=O)[C@H](CCC(N)=O)NC(=O)CNC(=O)[C@@H]1CCCN1C(=O)[C@H](CCCCN)NC(=O)[C@H](Cc1ccccc1)NC(=O)[C@H](CCC(=O)O)NC(=O)[C@H](CC(C)C)NC(=O)[C@@H](NC(=O)[C@H](Cc1c[nH]cn1)NC(=O)[C@@H](N)CCCCN)[C@@H](C)O)C(=O)N[C@@H](Cc1ccc(O)cc1)C(=O)O [compound 177] (H-KHTLEFKPGQPMY-OH; N-terminus and C-terminus assumed)	<90	<90	–	–	–	–
CSCC[C@H](NC(=O)[C@H](CO)NC(=O)[C@H](CO)NC(=O)CNC(=O)[C@@H]1CCCN1C(=O)[C@H](CCCCN)NC(=O)[C@H](CC(C)C)NC(=O)[C@H](CO)NC(=O)[C@H](CC(C)C)NC(=O)[C@H](Cc1c[nH]c2ccccc12)NC(=O)[C@H](CCC(=O)O)NC(=O)[C@@H]1CCCN1)C(=O)N[C@@H](Cc1ccc(O)cc1)C(=O)O [compound 122] (H-PEWLSLKPGSSMY-OH; N-terminus and C-terminus assumed)	<90	<90	–	–	–	–
CC[C@H](C)[C@H](NC(=O)[C@H](CCCCN)NC(=O)[C@H](Cc1ccccc1)NC(=O)[C@H](CCC(=O)O)NC(=O)[C@H](CC(C)C)NC(=O)[C@H](CO)NC(=O)[C@H](Cc1c[nH]cn1)NC(=O)[C@@H](N)Cc1c[nH]c2ccccc12)C(=O)NCC(=O)N[C@@H](CCC(N)=O)C(=O)NCC(=O)N[C@@H](CCSC)C(=O)N[C@@H](Cc1ccc(O)cc1)C(=O)O [compound 89] (H-WHSLEFKIGQGMY-OH; N-terminus and C-terminus assumed)	99.55	100	<90	<90	–	–
CC[C@H](C)[C@H](NC(=O)[C@H](Cc1c[nH]c2ccccc12)NC(=O)[C@H](Cc1c[nH]cn1)NC(=O)[C@@H]1CCCN1)C(=O)N[C@@H](CCCCN)C(=O)N[C@@H](CC(C)C)C(=O)N[C@@H](Cc1c[nH]cn1)C(=O)N[C@H](C(=O)NCC(=O)N[C@@H](CCC(N)=O)C(=O)N1CCC[C@H]1C(=O)N[C@@H](CCSC)C(=O)N[C@@H](Cc1ccc(O)cc1)C(=O)O)[C@@H](C)O [compound 77] (H-PHWIKLHTGQPMY-OH; N-terminus and C-terminus assumed)	100	99.74	<90	<90	–	–
CSCC[C@H](NC(=O)[C@@H]1CCCN1C(=O)[C@H](CCC(N)=O)NC(=O)CNC(=O)[C@@H]1CCCN1C(=O)[C@H](Cc1c[nH]c2ccccc12)NC(=O)[C@H](Cc1ccccc1)NC(=O)[C@H](CCC(N)=O)NC(=O)CNC(=O)[C@@H](NC(=O)[C@H](CCCNC(=N)N)NC(=O)[C@@H](N)Cc1c[nH]c2ccccc12)[C@@H](C)O)C(=O)N[C@@H](Cc1ccc(O)cc1)C(=O)O [compound 146] (H-WRTGQFWPGQPMY-OH; N-terminus and C-terminus assumed)	<90	<90	–	–	–	–
CSCC[C@H](NC(=O)[C@@H]1CCCN1C(=O)[C@H](CCC(N)=O)NC(=O)CNC(=O)[C@@H]1CCCN1C(=O)[C@H](Cc1ccc(O)cc1)NC(=O)[C@H](CC(C)C)NC(=O)[C@H](CCCCN)NC(=O)[C@H](CC(C)C)NC(=O)[C@H](Cc1c[nH]c2ccccc12)NC(=O)[C@H](CCC(=O)O)NC(=O)[C@@H]1CCCN1)C(=O)N[C@@H](Cc1ccc(O)cc1)C(=O)O [compound 49] (H-PEWLKLYPGQPMY-OH; N-terminus and C-terminus assumed)	<90	<90	–	–	–	–
CSCC[C@H](NC(=O)[C@@H]1CCCN1C(=O)[C@H](CCC(N)=O)NC(=O)CNC(=O)[C@@H]1CCCN1C(=O)[C@H](CCCCN)NC(=O)[C@H](Cc1ccccc1)NC(=O)[C@H](CCCNC(=N)N)NC(=O)[C@H](CC(C)C)NC(=O)[C@H](Cc1ccccc1)NC(=O)[C@H](Cc1c[nH]cn1)NC(=O)[C@@H](N)CCCCN)C(=O)N[C@@H](Cc1ccc(O)cc1)C(=O)O [compound 18] (H-KHFLRFKPGQPMY-OH; N-terminus and C-terminus assumed)	100	100	<90	99.67	94.03	active
CSCC[C@H](NC(=O)[C@@H]1CCCN1C(=O)[C@H](CCC(N)=O)NC(=O)CNC(=O)[C@H](CC(N)=O)NC(=O)[C@H](CCCCN)NC(=O)[C@H](CC(C)C)NC(=O)[C@H](CCC(N)=O)NC(=O)[C@@H](NC(=O)[C@H](Cc1c[nH]c2ccccc12)NC(=O)[C@H](Cc1c[nH]cn1)NC(=O)[C@@H]1CCCN1)C(C)C)C(=O)N[C@@H](Cc1ccc(O)cc1)C(=O)O [compound 173] (H-PHWVQLKNGQPMY-OH; N-terminus and C-terminus assumed)	<90	<90	–	–	–	–
CSCC[C@H](NC(=O)[C@@H]1CCCN1C(=O)[C@H](CO)NC(=O)CNC(=O)[C@@H]1CCCN1C(=O)[C@H](CCCCN)NC(=O)[C@H](CC(C)C)NC(=O)[C@@H](NC(=O)[C@H](CC(C)C)NC(=O)[C@@H](NC(=O)[C@H](CCC(=O)O)NC(=O)[C@@H](N)Cc1c[nH]c2ccccc12)C(C)C)[C@@H](C)O)C(=O)N[C@@H](Cc1ccc(O)cc1)C(=O)O [compound 130] (H-WEVLTLKPGSPMY-OH; N-terminus and C-terminus assumed)	<90	<90	–	–	–	–
CSCC[C@H](NC(=O)[C@@H]1CCCN1C(=O)[C@H](CCSC)NC(=O)CNC(=O)[C@H](CO)NC(=O)[C@H](CCCCN)NC(=O)[C@H](CC(C)C)NC(=O)[C@H](C)NC(=O)CNC(=O)[C@H](Cc1c[nH]c2ccccc12)NC(=O)[C@H](CO)NC(=O)[C@@H](N)Cc1c[nH]c2ccccc12)C(=O)N[C@@H](Cc1ccc(O)cc1)C(=O)O [compound 172] (H-WSWGALKSGMPMY-OH; N-terminus and C-terminus assumed)	<90	<90	–	–	–	–
CSCC[C@H](NC(=O)[C@@H]1CCCN1C(=O)[C@H](C)NC(=O)CNC(=O)[C@@H]1CCCN1C(=O)[C@H](CCCNC(=N)N)NC(=O)[C@H](Cc1ccccc1)NC(=O)[C@H](CCC(N)=O)NC(=O)[C@@H](NC(=O)[C@H](Cc1c[nH]c2ccccc12)NC(=O)[C@H](Cc1c[nH]cn1)NC(=O)[C@@H](N)Cc1c[nH]c2ccccc12)C(C)C)C(=O)N[C@@H](Cc1ccc(O)cc1)C(=O)O [compound 97] (H-WHWVQFRPGAPMY-OH; N-terminus and C-terminus assumed)	95.75	100	<90	<90	–	–
CSCC[C@H](NC(=O)CNC(=O)[C@H](CCC(N)=O)NC(=O)CNC(=O)[C@H](CC(N)=O)NC(=O)[C@H](CCCCN)NC(=O)[C@H](CC(C)C)NC(=O)[C@H](C)NC(=O)[C@@H](NC(=O)[C@H](Cc1c[nH]c2ccccc12)NC(=O)[C@H](Cc1c[nH]cn1)NC(=O)[C@@H](N)Cc1c[nH]c2ccccc12)C(C)C)C(=O)N[C@@H](Cc1ccc(O)cc1)C(=O)O [compound 23] (H-WHWVALKNGQGMY-OH; N-terminus and C-terminus assumed)	98.68	100	<90	<90	–	–
